Results as given in PMC11808136, “Screening and identification of host signaling pathways for alleviating influenza-induced production of pro-inflammatory cytokines, IP-10, IL-8, and MCP-1, using a U937 cell-based influenza model” (Frontiers in Microbiology, 2025).
Like-named read-outs stand apart in the source and are kept apart here.

Key:
[1] = system: ERK phosphorylation (p-ERK); assay: Western blot of phosphorylated ERK in influenza-infected U937 cells; type: cell-based, Human; details: 24 h post-infection, western blot
Procedure: Figure 5 Raf/MEK/ERK and p38 signal pathways are involved in the regulation of cytokines in U937 cells. (A–C) Determination of inhibition rates on IL-8, IP-10, and MCP-1 by each compound in the MAPK group and the distribution of targets between subgroups. U937 cells were infected with influenza A/PuertoRico/8/1934 virus (MOI = 0.1) in the presence of 10 μM of each inhibitor and then incubated at 37°C for 48 h. The distribution of the targets of all the inhibitors in the MAPK group was then analyzed and categorized into subgroups. […] The supernatants were harvested 48 h post-infection, and the levels of IL-8, MCP-1, and IP-10 were measured by AlphaLISA. (E) The cells were treated as in (C) except being lysed 24 h post-infection, and the levels of phosphorylated STAT1, p38, ERK (p-STAT1, p-p38, p-ERK), total STAT1, p38, ERK, and viral protein HA were assessed by western blot. (F) A quantitative analysis of the relative levels of the phosphorylated STAT1, p38, ERK (p-STAT1, p-p38, p-ERK) in (E). The data are representative of at least three independent experiments. n.s. no significance; *p < 0.05; **p < 0.01; ***p < 0.001.
(§1) Figure 6 TKIs repress cytokine production by suppressing the p38 pathway. […] Cells were lysed 24 h post-infection, and the levels of phosphorylated p38 and ERK (p-p38 and p-ERK) and total p38 and ERK were assessed by western blot. A quantification of phosphorylated p38 levels for each drug treatment was included in the right panel of each figure.
Cells were homogenized in RIPA lysis buffer containing a 1% protease inhibitor cocktail (Roche) to extract total protein. Equal amounts of protein homogenates were separated by SDS-PAGE (Bio-Rad) and transferred onto polyvinylidene difluoride membranes (pore size […]; Bio-Rad). […] Protein levels were detected with horseradish peroxidase-tagged secondary antibodies and enhanced chemiluminescence western blot reagents (Advansta), followed by visualization using an enhanced chemiluminescence system (AlphaEase FluorChem System, Alpha Innotech Corp.). Bands were quantified using ImageJ (Ver. 1.46; NIH, Bethesda, MD).

[2] = system: IP-10 production in influenza virus-infected U937 cells (H1N1); assay: cells; type: cell-based; details: Homo sapiens; for EC50: read-out: EC50 IP-10
[3] = system: IL-8 production in influenza virus-infected U937 cells (H7N8); assay: cells; type: cell-based, Human; details: Homo sapiens, U-937, read-out: EC50 IL-8
[4] = molecular target: JAK1 (Homo sapiens, UniProt P23458); assay: Cell-free kinase activity assay, JAK1; details: cell-free kinase assay
Chain of JAK1 (P23458 whole entry): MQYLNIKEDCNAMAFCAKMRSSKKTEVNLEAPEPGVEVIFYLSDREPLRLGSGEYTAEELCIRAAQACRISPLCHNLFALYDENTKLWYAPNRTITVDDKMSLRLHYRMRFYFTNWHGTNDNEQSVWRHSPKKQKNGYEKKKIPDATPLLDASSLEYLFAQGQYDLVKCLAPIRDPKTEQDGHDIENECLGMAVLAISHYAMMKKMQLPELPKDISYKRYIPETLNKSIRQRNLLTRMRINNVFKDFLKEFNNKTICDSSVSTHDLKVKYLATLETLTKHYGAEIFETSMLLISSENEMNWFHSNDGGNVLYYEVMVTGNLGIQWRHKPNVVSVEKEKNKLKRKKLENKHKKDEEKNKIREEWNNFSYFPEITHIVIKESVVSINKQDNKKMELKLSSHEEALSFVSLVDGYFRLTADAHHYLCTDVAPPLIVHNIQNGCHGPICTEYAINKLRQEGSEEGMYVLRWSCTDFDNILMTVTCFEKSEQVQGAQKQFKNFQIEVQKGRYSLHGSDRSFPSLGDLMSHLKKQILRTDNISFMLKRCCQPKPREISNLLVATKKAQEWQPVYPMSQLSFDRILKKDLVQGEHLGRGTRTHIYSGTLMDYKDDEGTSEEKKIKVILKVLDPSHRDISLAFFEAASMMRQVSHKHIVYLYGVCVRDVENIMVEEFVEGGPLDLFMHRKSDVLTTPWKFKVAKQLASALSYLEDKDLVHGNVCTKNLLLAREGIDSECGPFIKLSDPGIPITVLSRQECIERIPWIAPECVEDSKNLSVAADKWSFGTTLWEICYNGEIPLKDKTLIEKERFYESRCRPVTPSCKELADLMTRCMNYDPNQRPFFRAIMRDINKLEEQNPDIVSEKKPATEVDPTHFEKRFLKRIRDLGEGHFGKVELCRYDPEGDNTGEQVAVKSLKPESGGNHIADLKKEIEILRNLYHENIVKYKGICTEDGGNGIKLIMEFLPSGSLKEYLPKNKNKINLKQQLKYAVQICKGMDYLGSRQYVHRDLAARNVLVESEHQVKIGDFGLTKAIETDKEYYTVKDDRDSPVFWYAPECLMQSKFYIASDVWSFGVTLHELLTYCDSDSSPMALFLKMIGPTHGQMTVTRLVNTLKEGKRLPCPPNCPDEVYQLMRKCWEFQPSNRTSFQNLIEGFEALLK

[5] = system: MCP-1 production in influenza virus-infected U937 cells (H3N2); assay: cells; type: cell-based, Human; details: Homo sapiens, U-937
[6] = system: MCP-1 production in influenza virus-infected U937 cells (H7N8); assay: cells; type: cell-based, Human; details: Homo sapiens, U-937, read-out: EC50 MCP-1
[7] = system: IP-10 production in influenza virus-infected U937 cells (H7N8); assay: cells; type: cell-based, Human; details: Homo sapiens, U-937, read-out: EC50 IP-10
[8] = system: U937 cells; details: human
[9] = molecular target: T1, JAK2 (Homo sapiens, UniProt O60674); assay: Cell-free kinase activity assay, JAK2; type: biochemical; details: cell-free kinase assay
T1 construct: purchased KinaseProfiler (Eurofin, Brussels, Belgium)
T1 sequence (O60674 whole entry): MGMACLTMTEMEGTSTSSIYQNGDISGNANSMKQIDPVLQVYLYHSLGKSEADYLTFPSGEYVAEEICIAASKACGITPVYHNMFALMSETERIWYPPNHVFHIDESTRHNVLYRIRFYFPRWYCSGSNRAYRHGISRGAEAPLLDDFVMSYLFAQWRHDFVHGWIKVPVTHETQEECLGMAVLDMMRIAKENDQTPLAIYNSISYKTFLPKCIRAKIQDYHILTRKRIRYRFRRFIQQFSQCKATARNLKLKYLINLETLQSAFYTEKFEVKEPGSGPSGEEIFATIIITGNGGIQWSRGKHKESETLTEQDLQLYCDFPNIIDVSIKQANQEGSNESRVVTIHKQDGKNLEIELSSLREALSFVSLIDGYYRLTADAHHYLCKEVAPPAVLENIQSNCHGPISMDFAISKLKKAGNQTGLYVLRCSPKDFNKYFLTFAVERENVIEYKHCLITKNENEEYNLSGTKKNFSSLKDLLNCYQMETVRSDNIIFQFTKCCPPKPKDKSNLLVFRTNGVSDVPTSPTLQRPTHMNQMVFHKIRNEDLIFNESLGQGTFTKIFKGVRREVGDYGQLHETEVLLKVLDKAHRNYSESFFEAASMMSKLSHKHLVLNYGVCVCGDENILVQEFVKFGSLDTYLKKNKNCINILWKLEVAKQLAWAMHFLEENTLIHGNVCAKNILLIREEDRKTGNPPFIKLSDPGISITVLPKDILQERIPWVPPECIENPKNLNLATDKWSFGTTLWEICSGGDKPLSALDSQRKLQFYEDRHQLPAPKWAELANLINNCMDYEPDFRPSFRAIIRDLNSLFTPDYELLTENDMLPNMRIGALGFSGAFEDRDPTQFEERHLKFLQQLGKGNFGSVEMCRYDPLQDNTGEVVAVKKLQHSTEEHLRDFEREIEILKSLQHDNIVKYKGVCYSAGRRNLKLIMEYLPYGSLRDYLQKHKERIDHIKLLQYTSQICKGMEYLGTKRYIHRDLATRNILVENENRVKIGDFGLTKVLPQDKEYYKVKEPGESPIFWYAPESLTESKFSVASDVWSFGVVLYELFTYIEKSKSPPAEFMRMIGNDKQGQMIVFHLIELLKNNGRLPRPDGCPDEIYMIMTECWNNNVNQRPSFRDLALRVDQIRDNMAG

[10] = system: phosphorylation of p38 (p-p38); assay: Western blot of phosphorylated p38 in influenza-infected U937 cells; type: cell-based, Human; details: Homo sapiens, U-937, read-out: IC50 p-p38
Procedure: as §1
(§2) Cells were homogenized in RIPA lysis buffer containing a 1% protease inhibitor cocktail (Roche) to extract total protein. Equal amounts of protein homogenates were separated by SDS-PAGE (Bio-Rad) and transferred onto polyvinylidene difluoride membranes (pore size […]; Bio-Rad). The membranes were then blotted with monoclonal antibodies against GAPDH (1:1000, ZSGB-BIO), p38, phosphor-p38, ERK, phospho-ERK, STAT1, phosphor-STAT1 (1:1000; Cell Signaling Technology), STAT3, and phosphor-STAT3 (1:1000; Cell Signaling Technology), respectively. Protein levels were detected with horseradish peroxidase-tagged secondary antibodies and enhanced chemiluminescence western blot reagents (Advansta), followed by visualization using an enhanced chemiluminescence system (AlphaEase FluorChem System, Alpha Innotech Corp.). Bands were quantified using ImageJ (Ver. 1.46; NIH, Bethesda, MD).

[11] = system: STAT3 phosphorylation (p-STAT3); assay: Western blot of phosphorylated STAT3 in influenza-infected U937 cells; type: cell-based, Human; details: 1 μM ponatinib, 24 h
Procedure: Figure 3 JAK is essential for regulating the production of pro-inflammatory cytokines induced by influenza infection in U937 cells. Inhibition rates on IL-8 (A), IP-10 (B), and MCP-1 (C) by each compound in the PTK group are categorized based on targets. […] The cells were then lysed after 24 h incubation at 37°C, and the levels of phosphorylated STAT1 (p-STAT1), total STAT1, phosphorylated STAT3 (p-STAT3), and total STAT3 were assessed by western blot.
as §2

[12] = system: IL-8 production in influenza virus-infected U937 cells (H3N2); assay: cells; type: cell-based, Human; details: Homo sapiens, U-937
[13] = system: STAT1 phosphorylation (p-STAT1); type: cell-based, Human
[14] = system: IP-10 production in influenza virus-infected U937 cells (H3N2); assay: cells; type: cell-based, Human; details: Homo sapiens, U-937
[15] = system: MCP-1 production in influenza virus-infected U937 cells (H1N1); assay: cells; type: cell-based; details: Homo sapiens; for EC50: read-out: EC50 MCP-1
[16] = system: influenza virus infection; design: method as in Florence et al., 2018; Chen et al., 2019; details: without compromising viral titers; ref Florence et al., 2018; Chen et al., 2019; cited from earlier work
[17] = system: IL-8 production in influenza virus-infected U937 cells (H1N1); assay: cells; type: cell-based, Human; details: Homo sapiens; for EC50: read-out: EC50 IL-8
[18] = U-937, secondary screen, Supplemental Table 1

Cc1ccc(C(=O)Nc2ccc(CN3CCN(C)CC3)c(C(F)(F)F)c2)cc1C#Cc1cnc2cccnn12 [Ponatinib]
phosphorylation level of ERK [1]: promoted | EC50 [2, 18]: 60 nM | EC50 ([2]; U-937): 270 nM | IC50 ([2]; U-937, read-out: IC50 IP-10): 250 nM | EC50 [3]: 833 nM | JAK1 activity [4]: directly inhibit | EC50 [5]: 625 nM | EC50 [6]: 345 nM | EC50 [7]: 833 nM | maximum non-toxic concentration [8]: 1 µM | JAK2 activity [9]: weaker effect | IC50 [10]: 180 nM | STAT3 phosphorylation [11]: limited inhibition | EC50 [12]: 714 nM | STAT1 phosphorylation levels [13]: significantly reduced | EC50 [14]: 59 nM | EC50 [15, 18]: < 5 nM | EC50 ([15]; U-937): 385 nM | IC50 ([15]; U-937, read-out: IC50 MCP-1): 400 nM | protection of mice from lethal influenza infection [16]: protecting mice from lethal influenza infection | IC50 ([17]; U-937): 300 nM | EC50 [17, 18]: < 5 nM | EC50 ([17]; U-937): 294 nM
